Common to all, as to assay type: cell-based
The target of one test is T1, hGIPR (Homo sapiens, UniProt P48546).
T1 construct: expressed in transfected cells
T1 sequence (P48546 22-466): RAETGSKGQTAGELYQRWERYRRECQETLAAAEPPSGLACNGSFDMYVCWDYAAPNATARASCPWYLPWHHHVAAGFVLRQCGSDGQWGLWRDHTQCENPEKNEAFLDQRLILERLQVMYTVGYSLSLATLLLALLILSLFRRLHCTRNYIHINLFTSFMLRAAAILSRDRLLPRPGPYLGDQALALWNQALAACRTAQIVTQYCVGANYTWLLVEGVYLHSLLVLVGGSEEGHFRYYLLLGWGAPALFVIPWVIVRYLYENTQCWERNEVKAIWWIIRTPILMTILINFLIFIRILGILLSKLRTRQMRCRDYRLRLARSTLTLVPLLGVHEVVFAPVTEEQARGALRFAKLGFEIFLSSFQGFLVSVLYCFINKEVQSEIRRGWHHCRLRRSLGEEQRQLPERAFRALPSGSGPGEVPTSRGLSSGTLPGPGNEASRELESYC
Kind of test: Functional cAMP formation (HTRF) in HEK-293 clonal cells expressing hGIPR, 0.1% bovine casein, without or with 1.0% human serum albumin. As to conditions: for EC50: cAMP, 0.1% bovine casein (no human serum albumin), geometric mean. A digest of the protocol: (§1)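 Cells were stimulated with peptide for 30 min at 37° C, then lysed in buffer carrying cAMP-d2 and anti-cAMP Eu3+-cryptate for a competitive HTRF read after at least 60 min at room temperature. The 665/620 nm ratio was converted to nM cAMP against a standard curve.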
Background: Changes in cAMP serve as a functional read-out for many G protein-coupled receptors.

The next test concerns the target T2, hGCGR (Homo sapiens, UniProt P47871).
T2 construct: expressed in transfected cells
Kind of test: Functional cAMP formation (HTRF) in HEK-293 clonal cells expressing hGCGR, 0.1% bovine casein, without or with 1.0% human serum albumin. As to conditions: cAMP. Summed up: as §1

The target in the next test is hGLP-1R (Homo sapiens, UniProt P43220). Kind of test: Functional cAMP formation (HTRF) in HEK-293 clonal cells expressing hGLP-1R, 0.1% bovine casein, without or with 1.0% human serum albumin. Also noted: expressed in transfected cells. As to conditions: for EC50: cAMP, 0.1% bovine casein (no human serum albumin), geometric mean. A digest of the protocol: as §1

Read-outs that look alike come from different tables or passages of the source. Bounds are passed on as bounds.

T2 sequence (P47871 26-477): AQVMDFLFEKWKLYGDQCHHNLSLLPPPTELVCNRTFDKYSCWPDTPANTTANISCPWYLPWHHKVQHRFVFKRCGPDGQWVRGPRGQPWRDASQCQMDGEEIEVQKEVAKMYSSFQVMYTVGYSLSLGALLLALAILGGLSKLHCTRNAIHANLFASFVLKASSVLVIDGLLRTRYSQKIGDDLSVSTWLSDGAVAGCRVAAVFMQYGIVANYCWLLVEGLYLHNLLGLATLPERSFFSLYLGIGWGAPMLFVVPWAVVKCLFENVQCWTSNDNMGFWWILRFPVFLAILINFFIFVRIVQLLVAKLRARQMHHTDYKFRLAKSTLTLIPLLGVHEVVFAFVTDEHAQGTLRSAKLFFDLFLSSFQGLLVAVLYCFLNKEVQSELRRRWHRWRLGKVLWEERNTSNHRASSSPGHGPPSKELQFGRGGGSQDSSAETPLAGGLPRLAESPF
Chain of hGLP-1R (P43220 24-463): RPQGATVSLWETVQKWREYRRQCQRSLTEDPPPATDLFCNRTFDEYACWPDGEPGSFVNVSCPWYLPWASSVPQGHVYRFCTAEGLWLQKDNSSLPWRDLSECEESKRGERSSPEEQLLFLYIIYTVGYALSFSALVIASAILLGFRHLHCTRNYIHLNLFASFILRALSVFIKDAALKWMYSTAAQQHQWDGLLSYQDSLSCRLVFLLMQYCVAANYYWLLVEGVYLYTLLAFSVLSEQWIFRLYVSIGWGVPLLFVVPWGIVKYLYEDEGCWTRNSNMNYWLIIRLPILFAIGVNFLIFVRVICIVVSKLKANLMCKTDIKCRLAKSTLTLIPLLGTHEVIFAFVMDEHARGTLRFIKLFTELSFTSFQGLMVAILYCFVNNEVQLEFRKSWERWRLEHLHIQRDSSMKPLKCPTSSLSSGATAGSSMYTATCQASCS

Consider `CC[C@H](C)[C@H](NC(=O)[C@H](CC(C)C)NC(=O)[C@](C)(Cc1ccc(O)cc1)NC(=O)[C@H](CCCCNC(=O)COCCOCCNC(=O)COCCOCCNC(=O)CC[C@H](NC(=O)CCCCCCCCCCCCC(=O)O)C(=O)O)NC(=O)[C@@H](NC(=O)[C@H](Cc1ccccc1)NC(=O)[C@H](CCC(=O)O)NC(=O)C(C)(C)NC(=O)[C@H](CCC(N)=O)NC(=O)[C@H](C)NC(=O)[C@H](CCCCNC(=O)COCCOCCNC(=O)COCCOCCNC(=O)CC[C@H](NC(=O)CCCCCCCCCCCCC(=O)O)C(=O)O)NC(=O)[C@H](CCCN)NC(=O)[C@H](CC(=O)O)NC(=O)[C@H](CC(C)C)NC(=O)[C@](C)(CC(C)C)NC(=O)[C@@H](NC(=O)C(C)(C)NC(=O)[C@H](Cc1ccncc1)NC(=O)[C@H](CC(=O)O)NC(=O)[C@H](CO)NC(=O)[C@@H](NC(=O)[C@](C)(Cc1ccccc1F)NC(=O)[C@@H](NC(=O)CNC(=O)[C@H](CCC(=O)O)NC(=O)C(C)(C)NC(=O)[C@@H](N)Cc1ccc(O)cc1)[C@@H](C)O)[C@@H](C)O)[C@@H](C)CC)[C@@H](C)CC)C(=O)N[C@@H](CCC(=O)O)C(=O)NCC(=O)NCC(=O)N1CCC[C@H]1C(=O)N[C@@H](CO)C(=O)N[C@@H](CO)C(=O)NCC(=O)N[C@@H](C)C(=O)N1CCC[C@H]1C(=O)N1CCC[C@H]1C(=O)N1CCC[C@H]1C(=O)N[C@@H](CO)C(N)=O` [Example 113], for which the Emax at hGIPR (HEK293, read-out: hGIPR Emax, % ± SEM, percent of maximal response to GIP(1-42)NH2, 37° C., 0.1% bovine casein, arithmetic mean) was found to be 97.9 ± 3.21%. The EC50 is greater than 9950 nM on hGCGR (hGCGR EC50, nM (SEM, n), incubated at 37° C., 0.1% bovine casein (no human serum albumin), geometric mean) and 0.291 nM at hGLP-1R (hGLP-1R EC50, nM (SEM, n), incubated at 37° C.).

As to `CC[C@H](C)[C@H](NC(=O)[C@H](CCCN)NC(=O)[C@H](CC(=O)O)NC(=O)[C@H](CC(C)C)NC(=O)[C@](C)(CC(C)C)NC(=O)[C@@H](NC(=O)C(C)(C)NC(=O)[C@H](Cc1ccncc1)NC(=O)[C@H](CC(=O)O)NC(=O)[C@H](CO)NC(=O)[C@@H](NC(=O)[C@](C)(Cc1ccccc1F)NC(=O)[C@@H](NC(=O)CNC(=O)[C@H](CCC(=O)O)NC(=O)C(C)(C)NC(=O)[C@@H](N)Cc1ccc(O)cc1)[C@@H](C)O)[C@@H](C)O)[C@@H](C)CC)C(=O)N[C@@H](C)C(=O)N[C@@H](CCC(N)=O)C(=O)NC(C)(C)C(=O)N[C@@H](CCC(=O)O)C(=O)N[C@@H](Cc1ccccc1)C(=O)N[C@H](C(=O)N[C@@H](CCCCNC(=O)COCCOCCNC(=O)COCCOCCNC(=O)COCCOCCNC(=O)CC[C@H](NC(=O)CCCCCCCCCOc1ccc(C(=O)O)cc1)C(=O)O)C(=O)N[C@@](C)(Cc1ccc(O)cc1)C(=O)N[C@@H](CC(C)C)C(=O)N[C@H](C(=O)N[C@@H](CCCCNC(=O)COCCOCCNC(=O)COCCOCCNC(=O)COCCOCCNC(=O)CC[C@H](NC(=O)CCCCCCCCCOc1ccc(C(=O)O)cc1)C(=O)O)C(=O)NCC(=O)NCC(=O)N1CCC[C@H]1C(=O)N[C@@H](CO)C(=O)N[C@@H](CO)C(=O)NCC(=O)N[C@@H](C)C(=O)N1CCC[C@H]1C(=O)N1CCC[C@H]1C(=O)N1CCC[C@H]1C(=O)N[C@@H](CO)C(N)=O)[C@@H](C)CC)[C@@H](C)CC` [Example 345], the Emax on hGIPR (HEK293, read-out: hGIPR Emax, % ± SEM, cAMP, 37° C., 0.1% bovine casein and 1.0% human serum albumin, percent of maximal response to GIP(1-42)NH2) worked out at 86.8%; on hGIPR (HEK293, read-out: hGIPR Emax, % ± SEM, cAMP, 37° C., 0.1% bovine casein, percent of maximal response to GIP(1-42)NH2, arithmetic mean) it was 98.9%; on hGLP-1R (HEK293, read-out: hGLP-1R Emax, % ± SEM, cAMP, 37° C., 0.1% bovine casein and 1.0% human serum albumin, percent of maximal response to GLP-1(7-36)NH2), 110%; on hGLP-1R (HEK293, read-out: hGLP-1R Emax, % ± SEM, cAMP, 37° C., 0.1% bovine casein, percent of maximal response to GLP-1(7-36)NH2, arithmetic mean), 105%. For the same compound, the EC50 is 0.0147 nM at hGIPR (hGIPR EC50, nM (SEM, n), 37° C.); greater than 9950 nM on hGCGR (hGCGR EC50, nM (SEM, n), 37° C., 0.1% bovine casein (no human serum albumin), geometric mean); greater than 9950 nM at hGCGR (hGCGR EC50, nM (SEM, n), 37° C., 0.1% bovine casein and 1.0% human serum albumin, geometric mean (SEM, n)); 0.285 nM at hGLP-1R (hGLP-1R EC50, nM (SEM, n), 37° C.).

For the compound `CC[C@H](C)[C@H](NC(=O)[C@H](CC(C)C)NC(=O)[C@](C)(Cc1ccc(O)cc1)NC(=O)[C@@H](CCC(=O)O)NC(=O)[C@@H](NC(=O)[C@H](Cc1ccccc1)NC(=O)[C@H](CCC(=O)O)NC(=O)[C@H](Cc1ccncc1)NC(=O)[C@H](CCC(N)=O)NC(=O)[C@H](C)NC(=O)[C@H](CCCCNC(=O)COCCOCCNC(=O)COCCOCCNC(=O)CC[C@H](NC(=O)CCCCCCCCCCCCC(=O)O)C(=O)O)NC(=O)[C@H](CCCN)NC(=O)[C@H](CC(=O)O)NC(=O)[C@H](CC(C)C)NC(=O)[C@](C)(CC(C)C)NC(=O)[C@@H](NC(=O)[C@H](CO)NC(=O)[C@H](Cc1ccncc1)NC(=O)[C@H](CC(=O)O)NC(=O)[C@H](CO)NC(=O)[C@@H](NC(=O)[C@](C)(Cc1ccccc1F)NC(=O)[C@@H](NC(=O)CNC(=O)[C@H](CCC(=O)O)NC(=O)C(C)(C)NC(=O)[C@@H](N)Cc1ccc(O)cc1)[C@@H](C)O)[C@@H](C)O)[C@@H](C)CC)[C@@H](C)CC)C(=O)N[C@@H](CCC(=O)O)C(=O)NCC(=O)NCC(=O)N[C@@H](CCCCNC(=O)COCCOCCNC(=O)COCCOCCNC(=O)CC[C@H](NC(=O)CCCCCCCCCCCCC(=O)O)C(=O)O)C(=O)N[C@@H](CO)C(=O)N[C@@H](CO)C(=O)NCC(=O)N[C@@H](C)C(=O)N1CCC[C@H]1C(=O)N1CCC[C@H]1C(=O)N1CCC[C@H]1C(=O)N[C@@H](CO)C(N)=O` [Example 156], the Emax on hGIPR (HEK293, percent of maximal response to GIP(1-42)NH2, 37° C., 0.1% bovine casein, arithmetic mean, read-out: hGIPR Emax, % ± SEM) worked out at 89.9%; on hGLP-1R (HEK293, percent of maximal response to GLP-1(7-36)NH2, 37° C., 0.1% bovine casein, arithmetic mean, read-out: hGLP-1R Emax, % ± SEM), 110%. For the same compound, the half-maximal effective concentration (EC50) on hGCGR (incubated at 37° C., 0.1% bovine casein (no human serum albumin), geometric mean, read-out: hGCGR EC50, nM (SEM, n)) was greater than 9950 nM.

For the compound `CC[C@H](C)[C@H](NC(=O)[C@H](CC(C)C)NC(=O)[C@](C)(Cc1ccc(O)cc1)NC(=O)[C@@H](CCC(=O)O)NC(=O)[C@@H](NC(=O)[C@H](Cc1ccccc1)NC(=O)[C@H](CCCCNC(=O)CCOCCOCCOCCNC(=O)CC[C@H](NC(=O)CCCCCCCCCCCCC(=O)O)C(=O)O)NC(=O)C(C)(C)NC(=O)[C@H](CCC(N)=O)NC(=O)[C@H](C)NC(=O)[C@H](CCCCNC(=O)CCOCCOCCOCCNC(=O)CC[C@H](NC(=O)CCCCCCCCCCCCC(=O)O)C(=O)O)NC(=O)[C@H](CCCN)NC(=O)[C@H](CC(=O)O)NC(=O)[C@H](CC(C)C)NC(=O)[C@](C)(CC(C)C)NC(=O)[C@@H](NC(=O)C(C)(C)NC(=O)[C@H](Cc1ccncc1)NC(=O)[C@H](CC(=O)O)NC(=O)[C@H](CO)NC(=O)[C@@H](NC(=O)[C@](C)(Cc1ccccc1F)NC(=O)[C@@H](NC(=O)CNC(=O)[C@H](CCC(=O)O)NC(=O)C(C)(C)NC(=O)[C@@H](N)Cc1ccc(O)cc1)[C@@H](C)O)[C@@H](C)O)[C@@H](C)CC)[C@@H](C)CC)C(=O)N[C@@H](CCC(=O)O)C(=O)NCC(=O)NCC(=O)N1CCC[C@H]1C(=O)N[C@@H](CO)C(=O)N[C@@H](CO)C(=O)NCC(=O)N[C@@H](C)C(=O)N1CCC[C@H]1C(=O)N1CCC[C@H]1C(=O)N1CCC[C@H]1C(=O)N[C@@H](CO)C(N)=O` [Example 404], the Emax is 77.3% at hGIPR (HEK293, cAMP, 37° C., 0.1% bovine casein and 1.0% human serum albumin, percent of maximal response to GIP(1-42)NH2, read-out: hGIPR Emax, % ± SEM); 94.3% at hGLP-1R (HEK293, cAMP, 37° C., 0.1% bovine casein, percent of maximal response to GLP-1(7-36)NH2, arithmetic mean, read-out: hGLP-1R Emax, % ± SEM). Also, the EC50 was 0.014 nM on hGIPR (37° C., read-out: hGIPR EC50, nM (SEM, n)); greater than 9950 nM at hGCGR (37° C., 0.1% bovine casein (no human serum albumin), geometric mean, read-out: hGCGR EC50, nM (SEM, n)); greater than 9950 nM on hGCGR (37° C., 0.1% bovine casein and 1.0% human serum albumin, geometric mean (SEM, n), read-out: hGCGR EC50, nM (SEM, n)); 0.632 nM at hGLP-1R (37° C., read-out: hGLP-1R EC50, nM (SEM, n)).

As a reminder, the Emax is the maximal effect, on the per cent scale that the assay sets. As usually defined, the EC50 is the midpoint of the concentration-response curve.
